Experimental data taken from ChEMBL document CHEMBL2062390, “3-Phenyl-1H-5-pyrazolylamine-based derivatives as potent and efficacious inhibitors of FMS-like tyrosine kinase-3 (FLT3)” (Bioorg Med Chem Lett, 2012).
Active and inactive are the calls of the source. The calls are words filed in the database; no cut-off is given here.

How the values were obtained:
[1] = target: Vascular endothelial growth factor receptor 1 (Homo sapiens, UniProt P17948)
[2] = system: MOLM-13; experiment: cells; settings: Homo sapiens
Description: Antiproliferative activity against human MOLM13 cells expressing FLT3-ITD mutant

[3] = target: T1, Aurora kinase A (Homo sapiens, UniProt O14965)
T1 sequence (O14965 whole entry): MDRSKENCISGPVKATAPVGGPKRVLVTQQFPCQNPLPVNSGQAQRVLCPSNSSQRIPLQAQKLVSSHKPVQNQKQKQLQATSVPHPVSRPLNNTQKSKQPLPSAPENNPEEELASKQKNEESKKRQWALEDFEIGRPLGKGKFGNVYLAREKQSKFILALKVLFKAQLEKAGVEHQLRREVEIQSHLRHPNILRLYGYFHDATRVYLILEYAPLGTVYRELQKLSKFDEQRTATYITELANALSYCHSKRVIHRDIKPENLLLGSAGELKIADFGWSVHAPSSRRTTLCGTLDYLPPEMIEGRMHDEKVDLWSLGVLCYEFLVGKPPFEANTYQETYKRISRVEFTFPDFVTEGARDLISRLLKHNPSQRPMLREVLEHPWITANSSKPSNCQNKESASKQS

[4] = target: T2, Receptor-type tyrosine-protein kinase FLT3 (Homo sapiens, UniProt P36888)
T2 sequence (P36888 whole entry): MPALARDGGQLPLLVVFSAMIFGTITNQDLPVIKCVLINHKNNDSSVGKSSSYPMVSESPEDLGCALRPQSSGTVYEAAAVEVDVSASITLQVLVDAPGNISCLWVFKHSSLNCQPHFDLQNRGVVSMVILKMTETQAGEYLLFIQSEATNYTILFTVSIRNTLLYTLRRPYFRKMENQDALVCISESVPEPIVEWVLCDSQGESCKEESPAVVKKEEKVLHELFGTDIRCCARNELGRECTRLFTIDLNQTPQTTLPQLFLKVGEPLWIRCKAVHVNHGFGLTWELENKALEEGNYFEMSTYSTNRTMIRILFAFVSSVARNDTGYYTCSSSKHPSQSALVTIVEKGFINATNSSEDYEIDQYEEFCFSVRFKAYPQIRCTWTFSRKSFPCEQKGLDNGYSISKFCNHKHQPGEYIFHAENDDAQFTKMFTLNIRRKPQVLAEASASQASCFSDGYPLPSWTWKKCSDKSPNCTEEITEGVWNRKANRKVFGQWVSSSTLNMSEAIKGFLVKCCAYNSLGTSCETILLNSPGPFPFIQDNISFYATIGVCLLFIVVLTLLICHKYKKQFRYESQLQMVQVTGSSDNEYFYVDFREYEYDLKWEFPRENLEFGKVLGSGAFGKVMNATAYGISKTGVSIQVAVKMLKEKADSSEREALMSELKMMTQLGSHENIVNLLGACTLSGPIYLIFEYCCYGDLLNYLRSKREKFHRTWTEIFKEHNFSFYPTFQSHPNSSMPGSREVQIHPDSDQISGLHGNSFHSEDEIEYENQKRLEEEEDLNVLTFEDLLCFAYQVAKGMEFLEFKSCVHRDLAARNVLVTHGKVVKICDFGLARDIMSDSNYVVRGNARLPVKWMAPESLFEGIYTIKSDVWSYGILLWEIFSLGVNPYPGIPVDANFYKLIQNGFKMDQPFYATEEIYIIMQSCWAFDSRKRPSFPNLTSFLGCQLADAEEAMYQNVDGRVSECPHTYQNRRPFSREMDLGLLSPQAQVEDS
Description: Inhibition of wild type FLT3

[5] = target: Vascular endothelial growth factor receptor 2 (Homo sapiens, UniProt P35968)
Chain of Vascular endothelial growth factor receptor 2 (P35968 whole entry): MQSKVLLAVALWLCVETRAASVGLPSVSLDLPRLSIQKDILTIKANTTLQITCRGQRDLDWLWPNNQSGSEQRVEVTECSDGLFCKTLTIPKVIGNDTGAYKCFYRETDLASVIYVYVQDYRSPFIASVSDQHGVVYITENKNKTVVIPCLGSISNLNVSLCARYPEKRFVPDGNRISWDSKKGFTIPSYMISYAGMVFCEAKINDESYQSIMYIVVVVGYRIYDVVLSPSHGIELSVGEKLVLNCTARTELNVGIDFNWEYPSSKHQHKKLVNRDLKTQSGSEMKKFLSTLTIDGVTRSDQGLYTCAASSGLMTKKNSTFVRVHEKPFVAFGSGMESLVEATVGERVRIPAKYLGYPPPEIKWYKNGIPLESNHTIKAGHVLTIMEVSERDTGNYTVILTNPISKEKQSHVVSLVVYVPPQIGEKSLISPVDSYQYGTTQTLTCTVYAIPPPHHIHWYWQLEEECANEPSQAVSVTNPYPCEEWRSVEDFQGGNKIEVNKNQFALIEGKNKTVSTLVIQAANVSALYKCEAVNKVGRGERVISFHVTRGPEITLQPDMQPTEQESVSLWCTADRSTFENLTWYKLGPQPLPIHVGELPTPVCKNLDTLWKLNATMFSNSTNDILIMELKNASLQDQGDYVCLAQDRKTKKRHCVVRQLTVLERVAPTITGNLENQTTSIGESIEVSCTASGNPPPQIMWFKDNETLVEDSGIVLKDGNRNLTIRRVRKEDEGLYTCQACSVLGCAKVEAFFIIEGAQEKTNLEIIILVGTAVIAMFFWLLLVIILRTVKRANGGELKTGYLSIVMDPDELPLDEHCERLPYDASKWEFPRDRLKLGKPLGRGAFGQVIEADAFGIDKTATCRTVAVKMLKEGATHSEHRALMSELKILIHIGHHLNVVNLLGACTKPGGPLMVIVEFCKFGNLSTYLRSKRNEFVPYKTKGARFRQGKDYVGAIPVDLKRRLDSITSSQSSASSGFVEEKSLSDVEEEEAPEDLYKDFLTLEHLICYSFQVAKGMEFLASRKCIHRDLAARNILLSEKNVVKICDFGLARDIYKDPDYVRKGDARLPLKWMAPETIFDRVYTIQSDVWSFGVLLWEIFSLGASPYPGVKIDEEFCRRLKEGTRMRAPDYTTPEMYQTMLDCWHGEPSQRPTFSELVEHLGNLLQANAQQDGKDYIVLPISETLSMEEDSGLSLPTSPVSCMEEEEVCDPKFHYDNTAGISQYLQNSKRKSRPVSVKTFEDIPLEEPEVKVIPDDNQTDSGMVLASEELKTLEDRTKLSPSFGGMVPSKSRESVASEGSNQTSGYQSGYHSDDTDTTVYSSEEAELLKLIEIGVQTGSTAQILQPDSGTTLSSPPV

[6] = AUC (0 to 4 hrs) in rat at 2 mg/kg, iv; assay type: ADME, organism-based; design: time < 4 hr, dose 2 mg/kg, route intravenous; settings: plasma
[7] = Plasma clearance in Sprague-Dawley rat at 2 mg/kg, iv; assay type: ADME, organism-based; design: dose 2 mg/kg, route intravenous
[8] = Half life in Sprague-Dawley rat plasma at 2 mg/kg, iv; assay type: ADME, organism-based; design: dose 2 mg/kg, route intravenous
[9] = Oral bioavailability in Sprague-Dawley rat; assay type: ADME, organism-based; settings: in vivo
[10] = system: MOLM-13; experiment: Antitumor activity against human MOLM13 cells expressing FLT3-ITD mutant xenografted in athymic nude NU-Fox1 mouse assessed as tumor regression at 25 mg/kg, iv administered as single dose; assay type: functional, organism-based; design: dose 25 mg/kg
[11] = system: MOLM-13; experiment: Antitumor activity against human MOLM13 cells expressing FLT3-ITD mutant xenografted in athymic nude NU-Fox1 mouse assessed as tumor regression at 25 mg/kg, iv administered QD on days 1 to 5 and 8 to 12 measured up to 30 days; assay type: functional, organism-based; design: dose 25 mg/kg
[12] = Volume of distribution in Sprague-Dawley rat at 2 mg/kg, iv; assay type: ADME, organism-based; design: dose 2 mg/kg, route intravenous; settings: in vivo
[13] = Cmax in Sprague-Dawley rat at 2 mg/kg, iv at 5 mins; assay type: ADME, organism-based; design: dose 2 mg/kg, route intravenous; settings: in vivo
[14] = system: MV4-11; experiment: Antiproliferative activity against human MV4-11 cells expressing FLT3-ITD mutant; assay type: functional
[15] = Plasma concentration in Sprague-Dawley rat at 2 mg/kg, iv at 24 hrs; assay type: ADME, organism-based; design: dose 2 mg/kg, route intravenous
[16] = AUC in Sprague-Dawley rat at 2 mg/kg, iv; assay type: ADME, organism-based; design: dose 2 mg/kg, route intravenous; settings: plasma
[17] = target: T2, Receptor-type tyrosine-protein kinase FLT3; experiment: (§1) Inhibition of FLT3 autophosphorylation in human MV4-11 cells after 2 hrs by Western blot analysis; assay type: cell-based
[18] = target: Receptor-type tyrosine-protein kinase FLT3 (Homo sapiens) (UniProt P36888); experiment: as §1; assay type: cell-based
[19] = system: Mus musculus; experiment: Toxicity in athymic nude NU-Fox1 mouse xenografted with human MOLM-13 cells assessed as body weight loss at 25 mg/kg, iv administered QD on days 1 to 5 and 8 to 12 measured up to 30 days; assay type: organism-based; design: dose 25 mg/kg, route intravenous; settings: in vivo, 720 h

Chain of Vascular endothelial growth factor receptor 1 (P17948 whole entry): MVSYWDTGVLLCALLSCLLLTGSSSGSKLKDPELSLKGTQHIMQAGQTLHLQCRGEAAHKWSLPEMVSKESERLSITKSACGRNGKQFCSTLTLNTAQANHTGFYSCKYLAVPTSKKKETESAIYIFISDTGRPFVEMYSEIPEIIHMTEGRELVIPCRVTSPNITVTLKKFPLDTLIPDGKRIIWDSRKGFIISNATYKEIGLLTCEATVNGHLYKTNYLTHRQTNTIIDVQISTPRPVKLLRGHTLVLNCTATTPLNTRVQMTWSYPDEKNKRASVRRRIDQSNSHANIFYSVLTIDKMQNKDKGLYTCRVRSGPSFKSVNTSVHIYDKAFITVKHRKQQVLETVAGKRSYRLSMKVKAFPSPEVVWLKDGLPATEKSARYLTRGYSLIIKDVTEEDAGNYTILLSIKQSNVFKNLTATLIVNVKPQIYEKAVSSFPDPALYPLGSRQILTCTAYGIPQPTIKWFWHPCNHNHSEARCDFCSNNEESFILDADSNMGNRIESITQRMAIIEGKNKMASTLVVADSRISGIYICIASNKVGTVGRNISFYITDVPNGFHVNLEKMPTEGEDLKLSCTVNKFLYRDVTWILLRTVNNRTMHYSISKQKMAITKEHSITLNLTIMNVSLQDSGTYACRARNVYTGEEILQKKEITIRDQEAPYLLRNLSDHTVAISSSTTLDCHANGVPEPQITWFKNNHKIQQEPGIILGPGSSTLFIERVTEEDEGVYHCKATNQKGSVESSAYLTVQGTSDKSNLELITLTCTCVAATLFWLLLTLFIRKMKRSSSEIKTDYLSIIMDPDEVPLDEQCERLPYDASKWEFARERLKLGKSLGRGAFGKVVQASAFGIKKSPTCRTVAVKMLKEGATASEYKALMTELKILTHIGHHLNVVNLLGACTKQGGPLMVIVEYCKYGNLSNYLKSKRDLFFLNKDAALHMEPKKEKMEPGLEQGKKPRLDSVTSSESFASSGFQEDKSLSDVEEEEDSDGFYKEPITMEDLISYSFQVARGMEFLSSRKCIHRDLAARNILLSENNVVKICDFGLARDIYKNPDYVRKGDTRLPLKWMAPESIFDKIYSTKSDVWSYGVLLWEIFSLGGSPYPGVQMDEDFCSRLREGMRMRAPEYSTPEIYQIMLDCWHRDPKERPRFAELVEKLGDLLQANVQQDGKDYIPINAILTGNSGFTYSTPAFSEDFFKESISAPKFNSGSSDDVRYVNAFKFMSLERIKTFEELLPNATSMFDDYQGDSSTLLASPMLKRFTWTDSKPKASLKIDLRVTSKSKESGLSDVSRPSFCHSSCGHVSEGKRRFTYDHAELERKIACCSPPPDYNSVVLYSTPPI

Row | Structure (SMILES) | IC50 [1] | GI50 [2] | IC50 [3] | IC50 [4] | IC50 [5] | also measured
1 | Cc1cc(COC(=O)NCc2ccc(-c3cc(NC(=O)c4ccc(N5CCN(C)CC5)cc4)[nH]n3)cc2)no1 | 350 nM | 1 nM | > 1000 nM | 27 nM | 370 nM | 
2 | Cc1nc(Nc2cc(-c3ccc(CNC(=O)OCc4cccnc4)cc3)n[nH]2)cc(N2CCN(CCO)CC2)n1 | > 1000 nM | 3 nM | > 1000 nM | 21 nM | > 1000 nM | 
3 | Cc1cc(COC(=O)NCc2ccc(-c3cc(NC(=O)c4ccc(OCCN5CCOCC5)cc4)[nH]n3)cc2)no1 | > 1000 nM | 4 nM | > 1000 nM | 52 nM | > 1000 nM | AUC(0-t) at 4 h [6]: 1030 ng·h/mL
4 | CN1CCN(Cc2ccc(C(=O)Nc3cc(-c4ccc(CNC(=O)OCc5ccccc5)cc4)n[nH]3)cc2)CC1 | 320 nM | 4 nM | > 1000 nM | 7 nM | 170 nM | 
5 | O=C(NCc1ccc(-c2cc(NC(=O)c3ccc(OCCN4CCOCC4)cc3)[nH]n2)cc1)OCc1ccccc1 | 370 nM | 8 nM | 590 nM | 17 nM | 370 nM | 
6 | CCOC(=O)NCc1ccc(-c2cc(NC(=O)c3ccc(N4CCN(C)CC4)cc3)[nH]n2)cc1 | > 1000 nM | 48 nM | > 1000 nM | 17 nM | 560 nM | 
7 | Cc1cc(COC(=O)NCc2ccc(-c3cc(NC(=O)c4ccc(OCCN5CCCC5)cc4)[nH]n3)cc2)no1 | 590 nM | 2 nM | > 1000 nM | 43 nM | 480 nM | AUC(0-t) at 4 h [6]: 448 ng·h/mL
8 | CN1CCN(c2ccc(C(=O)Nc3cc(-c4ccc(CNC(=O)OCc5ccccc5)cc4)n[nH]3)cc2)CC1 | 20 nM | 2 nM | 880 nM | 6 nM | 100 nM | 
9 | O=C(NCc1ccc(-c2cc(NC(=O)c3ccc(OCCN4CCOCC4)cc3)[nH]n2)cc1)OCc1cccnc1 | > 1000 nM | 7 nM | > 1000 nM | 20 nM | > 1000 nM | 
10 | O=C(Nc1ccc(-c2cc(NC(=O)c3ccc(OCCN4CCCC4)cc3)[nH]n2)cc1)Oc1ccccc1 | > 1000 nM | 47 nM | > 1000 nM | 40 nM | 300 nM | 
11 | CN1CCN(c2ccc(C(=O)Nc3cc(-c4ccc(NC(=O)Oc5ccccc5)cc4)n[nH]3)cc2)CC1 | 320 nM | 5 nM | > 1000 nM | 12 nM | 180 nM | 
12 | Cc1nc(Nc2cc(-c3ccc(CNC(=O)OCc4cc(C)on4)cc3)n[nH]2)cc(N2CCN(C)CC2)n1 | > 1000 nM | 4 nM | > 1000 nM | 5 nM | > 1000 nM | 
13 | Cc1nc(Nc2cc(-c3ccc(CNC(=O)OCc4ccccc4)cc3)n[nH]2)cc(N2CCN(C)CC2)n1 | 420 nM | 2 nM | 430 nM | 18 nM | 310 nM | 
14 | O=C(NCc1ccc(-c2cc(NC(=O)c3ccc(OCCCN4CCCC4)cc3)[nH]n2)cc1)OCc1ccccc1 | 180 nM | 9 nM | > 1000 nM | 19 nM | 240 nM | 
15 | CN1CCN(c2ccc(C(=O)Nc3cc(-c4ccc(CNC(=O)Oc5ccccc5)cc4)n[nH]3)cc2)CC1 | 54 nM | 20 nM | > 1000 nM | 16 nM | 92 nM | 
16 | Cc1nc(Nc2cc(-c3ccc(CNC(=O)OCc4cccnc4)cc3)n[nH]2)cc(N2CCN(C)CC2)n1 | > 1000 nM | 2 nM | > 1000 nM | 4 nM | > 1000 nM | 
17 | Cc1nc(Nc2cc(-c3ccc(CNC(=O)OCc4cc(C)on4)cc3)n[nH]2)cc(N2CCN(CCO)CC2)n1 | > 1000 nM | 5 nM | > 1000 nM | 72 nM | > 1000 nM | AUC(0-t) at 4 h [6]: 443 ng·h/mL
18 | CN1CCN(c2ccc(C(=O)Nc3cc(-c4ccc(CNS(=O)(=O)c5ccccc5)cc4)n[nH]3)cc2)CC1 | > 1000 nM | 47 nM | 1000 nM | 140 nM | > 1000 nM | 
19 | CN1CCN(c2ccc(C(=O)Nc3cc(-c4ccc(NS(=O)(=O)c5ccccc5)cc4)n[nH]3)cc2)CC1 | > 1000 nM | 500 nM | > 1000 nM |  | > 1000 nM | 
20 | O=C(NCc1ccc(-c2cc(NC(=O)c3ccc(OCCN4CCCC4)cc3)[nH]n2)cc1)OCc1ccccc1 | 70 nM | 2 nM | > 1000 nM | 10 nM | 120 nM | clearance [7]: 16.2 mL/min/kg; half-life [8]: 6.2 h; bioavailability [9]: 5%; AUC(0-t) at 4 h [6]: 1380 ng·h/mL; Activity [10]: Active; Activity [11]: Active; Vd [12]: 6 L/kg; Cmax [13]: 5430 nM; GI50 [14]: 3 nM; concentration at 24 h [15]: 17 nM; AUC [16]: 5.79 µM·h; IC50 [17]: 1 nM; inhibition [18]: Dose-dependent effect; Activity [19]: Non-toxic
21 | Cc1nc(Nc2cc(-c3ccc(CNC(=O)OCc4ccccc4)cc3)n[nH]2)cc(N2CCN(CCO)CC2)n1 | 290 nM | 2 nM | 170 nM | 10 nM | 240 nM | 
22 | CN1CCN(c2ccc(C(=O)Nc3cc(-c4ccc(NC(=O)OCc5ccccc5)cc4)n[nH]3)cc2)CC1 | 200 nM | 16 nM | > 1000 nM | 7 nM | 48 nM | 
23 | O=C(NCc1ccc(-c2cc(NC(=O)c3ccc(OCCN4CCCC4)cc3)[nH]n2)cc1)OCc1cccnc1 | > 1000 nM | 8 nM | > 1000 nM | 35 nM | > 1000 nM | AUC(0-t) at 4 h [6]: 266 ng·h/mL
24 | Cc1nc(Nc2cc(-c3ccc(CNC(=O)OCc4ccccc4)cc3)n[nH]2)cc(N2CCNCC2)n1 | 82 nM | 6 nM | 350 nM | 17 nM | 190 nM | 
25 | CN1CCN(c2ccc(C(=O)Nc3cc(-c4ccc(CNC(=O)OCc5cccnc5)cc4)n[nH]3)cc2)CC1 | 250 nM | 2 nM | > 1000 nM | 14 nM | 220 nM | AUC(0-t) at 4 h [6]: 272 ng·h/mL
